tested on: Staphylococcus epidermidis; experiment: Antimicrobial activity against Staphylococcus epidermidis ATCC 12228; format: functional

MIC, ≤ 6.3 mg/L:
CCCCCCCCCCC(O)C[C@H]1C[C@H](O)[C@@H](O)[C@@H](CO)N1 (stereo partly drawn) [BATZELLASIDE A], CCCCCCCCCCCC(O)C[C@H]1C[C@H](O)[C@@H](O)[C@@H](CO)N1 (stereo partly drawn) [BATZELLASIDE C], CCCCCCCCCC(O)C[C@H]1C[C@H](O)[C@@H](O)[C@@H](CO)N1 (stereo partly drawn) [BATZELLASIDE B]

From ChEMBL document CHEMBL1142572, “A Madagascar Sponge Batzella sp. as a source of alkylated iminosugars” (2005)
